Read-outs that look alike come from different tables or passages of the source.
Legend:
A375 melanoma cells [1] = tested on: A375 melanoma cells;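 also: Read-out is formazan absorbance at 570 nm after 2 h with MTT, with compounds in at most 0.1% v/v DMSO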
Procedure: (§1) The MTT colorimetric assay was performed as a preliminary evaluation of the cytotoxicity of the selected flavonoids according to the method described and validated by Strawa et al. [21]. Briefly, melanoma cells and fibroblasts were seeded in 96-well microplates at a density of 1 × 10^4 cells per well. Fibroblasts were used as a control cell line in order to assess the selectivity of the compounds. […] Subsequently, the cells were washed with PBS, incubated with MTT solution for 2 h, and lysed with dimethyl sulfoxide (DMSO) supplemented with 1% (v/v) Sorensen’s glycine buffer. The absorbance was measured using a microplate reader (EPOCH 2, BioTek, Winooski, VT, USA) at a wavelength of 570 nm. The compounds were used at a final DMSO concentration of no more than 0.1% (v/v) in each well. The results were generated from at least three independent experiments. […] The IC50 values were calculated with GraphPad Prism 9 software (GraphPad Software, San Diego, CA, USA).

C32 melanoma cells [2] = tested on: C32 melanoma cells;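 also: MTT added for 2 h, cells lysed in DMSO, absorbance read at 570 nm, compound vehicle kept at or below 0.1% DMSO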
Procedure: as §1

[3] = tested on: human skin fibroblasts (CCD25Sk);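 also: fibroblasts served as non-cancer comparison line for selectivity versus melanoma cells, MTT reduction read as absorbance at 570 nm after 2 h dye exposure, compounds in ≤0.1% DMSO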
C32 melanoma cells [4] = tested on: C32 melanoma cells; remark: listed apart in the source;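 also: MTT added for 2 h, cells lysed in DMSO, absorbance read at 570 nm, compound vehicle kept at or below 0.1% DMSO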
[5] = tested on: human skin fibroblasts (CCD25Sk); remark: listed apart in the source;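 also: fibroblasts served as non-cancer comparison line for selectivity versus melanoma cells, MTT reduction read as absorbance at 570 nm after 2 h dye exposure, compounds in ≤0.1% DMSO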
Procedure: as §1

A375 melanoma cells [6] = tested on: A375 melanoma cells; remark: listed apart in the source;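 also: Read-out is formazan absorbance at 570 nm after 2 h with MTT, with compounds in at most 0.1% v/v DMSO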
A375 melanoma cells [7] = assay: Neutral red uptake (NRU) assay, A375; settings: read-out: IC50, cytotoxic activity, NRU assay
[8] = tested on: human skin fibroblasts (CCD25Sk); assay: Neutral red uptake (NRU) assay, normal cells; settings: read-out: IC50, cytotoxic activity, NRU assay, Normal cells (fibroblasts)
C32 melanoma cells [9] = assay: Neutral red uptake (NRU) assay, C32; settings: read-out: IC50, cytotoxic activity, NRU assay

SMILES | IC50 (A375 melanoma cells [1]) | IC50 (C32 melanoma cells [2]) | IC50 [3] | IC50 (C32 melanoma cells [4]) | IC50 [5] | IC50 (A375 melanoma cells [6]) | IC50 (A375 melanoma cells [7]; A375, 24 h) | IC50 (A375 melanoma cells [7]; A375, 48 h) | IC50 (A375 melanoma cells [7]; A375, 72 h) | IC50 ([8]; 24 h) | IC50 ([8]; 48 h) | IC50 ([8]; 72 h) | IC50 (C32 melanoma cells [9]; C32, 24 h) | IC50 (C32 melanoma cells [9]; C32, 48 h) | IC50 (C32 melanoma cells [9]; C32, 72 h)
O=c1cc(-c2ccc(O)c(O)c2)oc2cc(OC3OC(CO)C(O)C(O)C3OC3OCC(O)C(O)C3O)cc(O)c12 (stereo not drawn) [Compound 9, luteolin 7-O-sambubioside] | > 200 µM | > 200 µM | > 200 µM | > 200 µM | > 200 µM | > 200 µM |  |  |  |  |  |  |  |  | 
CC(=O)Oc1ccc(-c2cc(=O)c3c(O)cc(O)c([C@@H]4OC[C@@H](O)[C@H](O)[C@H]4O[C@@H]4O[C@H](CO)[C@@H](O)[C@H](O)[C@H]4O)c3o2)cc1O [Compound 10, 5,7,3′-trihydroxy-4′-acetoxy-flavone-8-C-xyloside-2″-O-glucoside] | > 200 µM | > 200 µM |  |  | > 200 µM |  | > 200 µM | > 200 µM | > 200 µM | > 200 µM | > 200 µM | > 200 µM | > 200 µM | > 200 µM | > 200 µM
COc1ccc(-c2cc(=O)c3c(O)cc(O)c([C@@H]4OC[C@@H](O)[C@H](O)[C@H]4O[C@@H]4O[C@H](CO)[C@@H](O)[C@H](O)[C@H]4O)c3o2)cc1O [Compound 11, 5,7,3′-trihydroxy-4′-methoxyflavone-8-C-xyloside-2″-O-glucoside] | > 200 µM | > 200 µM |  |  | > 200 µM |  | > 200 µM | > 200 µM | > 200 µM | > 200 µM | > 200 µM | > 200 µM | > 200 µM | > 200 µM | > 200 µM
COc1cc(-c2cc(=O)c3c(O)cc(O)c([C@@H]4OC[C@@H](O)[C@H](O)[C@H]4O[C@@H]4O[C@H](CO)[C@@H](OC(C)=O)[C@H](O)[C@H]4O)c3o2)ccc1OC(C)=O [Compound 12, 5,7-dihydroxy-3′-methoxy-4′-acetoxyflavone-8-C-xyloside-2″-O-(4‴-acetoxy)-glucoside] | > 200 µM | > 200 µM | > 200 µM | > 200 µM | > 200 µM | > 200 µM |  |  |  |  |  |  |  |  | 
